Data set [1] can be described thus: Organic tissue dissolution capacity of antiseptic and chelating solutions (mass loss of tissue samples, FIG. 4). As to conditions: 30 mL aqueous solution, 30 minutes. On the procedure:
Since the smear layer produced upon mechanical debridement of infected dental hard tissues includes both organic and inorganic dentin components, an investigation was conducted to determine the organic tissue dissolution capacity of various antiseptics and chelating solutions that are commonly used in dentistry and medical applications. For this purpose, soft tissue samples were incubated in aqueous solutions containing the agents to be studied and the mass loss of the tissue samples was measured. The results are collected in FIG. 4, where the average mass loss is given as a percentage fraction of the initial weight. FIG. 4 illustrates the mass loss (Mean %) of tissue samples incubated in 30 mL of aqueous solutions of various agents after 30 minutes. […] It can be seen that high concentrations of NaOCl along with the addition of surfactants (anionic and nonionic) tended to increase the tissue dissolution rate.

Data set [2] can be described thus: Smear layer removal from instrumented root canals (smear layer score). As to conditions: score 1 = very little smear layer remaining, 5 = heavy smear layer present. The text has this: (§1) A score of 1 indicates very little smear layer remaining, whereas a score of 5 indicates heavy smear layer present.
Data set [3] can be described thus: Mass loss of tissue samples in sodium hypochlorite at different pH values (FIG. 6). To be noted: 30 mL sodium hypochlorite, 30 minutes. From the text: The organic tissue dissolution capacity of NaOCl may be a function of free available chlorine in solution and a function of alkalinity. As pH increases to above […] the proportion of the hypochlorite anion (OCl^−) to hypochlorous acid (HOCl) dramatically increases. Below this pH, the concentration of hypochlorite anion decreases and the concentration of HOCl increases (see FIG. 5, which illustrates the chlorine speciation profile as a function of pH). […] However, as the concentration of the hypochlorite ions decreases, the tissue dissolution capacity also decreases (see FIG. 6, which illustrates mass loss of tissue samples incubated in 30 mL of sodium hypochlorite at different pH values after 30 minutes.). In certain aspects of the invention, the medicament comprises HOCl and OCl— and has a pH between 8 and 10.

The nature of data set [4]: Free available chlorine over time in 1:1 mixtures of chelating agent solutions with 3% NaOCl. It counts as physicochemical. To be noted: for ability to maintain initial available chlorine, in words: after 1 hour, HEDP only above a pH of 11.
The nature of data set [5]: Preliminary investigation of smear layer removal (calcium chelation).
Description: as §1

Turning to `OCl` [NaOCl, sodium hypochlorite], the “mass loss of tissue samples (FIG. 4), in words” value in data set [1] was “largest mass loss”. The “residual smear layer score, Apical” value in data set [2] (apical root canal third) is on record as 3.5. Besides, in data set [2] (coronal root canal third), the “residual smear layer score, Coronal” value was determined as 3.2. For the same compound, the “residual smear layer score, Middle” value in data set [2] (middle root canal third) was found to be 3.6. The “capability of dissolving organic tissue as a function of pH (FIG. 6), in words” value in data set [3] is “most capable of dissolving organic tissue at a pH above 8”.
Turning to `O=C(O)CCC(CC(=O)O)(C(=O)O)P(=O)(O)O` (stereo not drawn) [PBTC, 2-phosphonobutane-1,2,4,-tricarboxylic Acid], in data set [4], the “ability to maintain initial available chlorine, in words” value was “able to maintain most of their initial available chlorine”.
Turning to `CC(O)(P(=O)(O)O)P(=O)(O)O` [HEDP, 1-hydroxyethylidene-1,1-diphosphonic acid], the “Free Available Chlorine Remaining Post Mix (hours): 0” value in data set [4] (0 h, HEDP 15% at pH 11.1, 1:1 mix with 3% NaOCl) is listed as 100%. For the same compound, the “Free Available Chlorine Remaining Post Mix (hours): 1” value in data set [4] (1 h, HEDP 15% at pH 11.1, 1:1 mix with 3% NaOCl) was determined as 80%. For the same compound, the “Free Available Chlorine Remaining Post Mix (hours): 4” value in data set [4] (4 h, HEDP 15% at pH 11.1, 1:1 mix with 3% NaOCl) was 40%. In addition, in data set [4] (24 h, HEDP 15% at pH 11.1, 1:1 mix with 3% NaOCl), the “Free Available Chlorine Remaining Post Mix (hours): 24” value is 20%. In data set [4], the “ability to maintain initial available chlorine, in words” value is “able to maintain most of their initial available chlorine”.
Consider `O=P(O)(O)O[C@H]1[C@H](OP(=O)(O)O)[C@@H](OP(=O)(O)O)[C@H](OP(=O)(O)O)[C@@H](OP(=O)(O)O)[C@H]1OP(=O)(O)O` [PA, phytic acid (C6H6[OPO(OH)2]6)], for which the “ability to maintain initial available chlorine, in words” value in data set [4] is given as “able to maintain most of their initial available chlorine”. Also, the “calcium chelator strength, in words” value in data set [5] was “relatively weak calcium chelators”.
For `O=P1([O-])OP(=O)([O-])OP(=O)([O-])OP(=O)([O-])OP(=O)([O-])OP(=O)([O-])O1.[Na+].[Na+].[Na+].[Na+].[Na+].[Na+]` [SH, sodium hexametaphosphate], in that order: “able to maintain most of their initial available chlorine” and “relatively weak calcium chelators”.

These data come from patent US20240000669A1, “NOVEL ENDODONTIC IRRIGANT” (INTER-MED, INC., priority 2020, published 2024).
